The record followed here is US9975874B2, “Factor XIa inhibitors” (Merck Sharp & Dohme Corp., priority 2014, dated 2018).

For experiment [1], the target named is purified human Factor XIa (Homo sapiens (Human), UniProt P03951). As to the kind of experiment: Factor XIa Assay. In kind it is biochemical. As for the experimental part: The effectiveness of a compound of the present invention as an inhibitor of Coagulation Factor XIa can be determined using a relevant purified serine protease, and an appropriate synthetic substrate. The rate of hydrolysis of the chromogenic or fluorogenic substrate by the relevant serine protease was measured both in the absence and presence of compounds of the present invention. Assays were conducted at room temperature or at 37° C. […] A decrease in the rate of fluorescence change in the presence of inhibitor is indicative of enzyme inhibition. Such methods are known to one skilled in the art. […]
Chain of purified human Factor XIa (P03951 388-625): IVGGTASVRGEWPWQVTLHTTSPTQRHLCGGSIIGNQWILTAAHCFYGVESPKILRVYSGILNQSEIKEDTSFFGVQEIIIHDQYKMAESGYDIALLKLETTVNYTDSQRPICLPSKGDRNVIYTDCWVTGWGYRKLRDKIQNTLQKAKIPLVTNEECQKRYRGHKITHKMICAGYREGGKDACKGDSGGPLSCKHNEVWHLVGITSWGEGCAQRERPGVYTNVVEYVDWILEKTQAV
Chain of purified human Factor XIa (P03951 19-387 partner): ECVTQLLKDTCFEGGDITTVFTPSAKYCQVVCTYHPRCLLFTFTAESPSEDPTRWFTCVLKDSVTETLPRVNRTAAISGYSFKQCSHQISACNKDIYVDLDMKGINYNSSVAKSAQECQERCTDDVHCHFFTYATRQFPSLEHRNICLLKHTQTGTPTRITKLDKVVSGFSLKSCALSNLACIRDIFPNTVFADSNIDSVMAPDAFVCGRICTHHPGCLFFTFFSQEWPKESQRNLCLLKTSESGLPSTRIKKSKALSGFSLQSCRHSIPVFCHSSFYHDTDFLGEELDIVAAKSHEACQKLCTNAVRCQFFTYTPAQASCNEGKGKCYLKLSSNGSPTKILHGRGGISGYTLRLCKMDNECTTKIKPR
Factor XIa determinations were made in 50 mM HEPES buffer at pH 7.4 containing 150 mM NaCl, 5 mM CaCl2, and 0.1% PEG 8000 (polyethylene glycol; JT Baker or Fisher Scientific). Determinations were made using purified human Factor XIa at a final concentration of 40 pM (Sekisui Diagnostics) and the synthetic substrate, Z-Gly-Pro-Arg-AFC, TFA salt (Sigma #C0980) at a concentration of 100 μM.
Times required to achieve equilibration between enzyme and inhibitor were determined in control experiments. Initial velocities of product formation in the absence (Vo) or presence of inhibitor (Vi) were measured. Assuming competitive inhibition, and that unity is negligible compared Km/[S], [I]/e, and [I]/e (where [S], [I], and e respectively represent the total concentrations, of substrate, inhibitor and enzyme), the equilibrium constant (Ki) for dissociation of the inhibitor from the enzyme can be obtained from the dependence of Vo/Vi on [I] shown in the following equation.

In experiment [2] the target is purified Human plasma kallikrein (Homo sapiens (Human), UniProt P03952). The experiment is described as follows: Kallikrein Assay. The format is biochemical. As for the experimental part:
The effectiveness of a compound of the present invention as an inhibitor of Kallikrein can be determined using a relevant purified serine protease, and an appropriate synthetic substrate. The rate of hydrolysis of the chromogenic or fluorogenic substrate by the relevant serine protease was measured both in the absence and presence of compounds of the present invention. Assays were conducted at room temperature or at 37° C. […] A decrease in the rate of fluorescence change in the presence of inhibitor is indicative of enzyme inhibition. Such methods are known to one skilled in the art. The results of this assay are expressed as the inhibitory constant, Ki.
Kallikrein determinations were made in 50 mM HEPES buffer at pH 7.4 containing 150 mM NaCl, 5 mM CaCl2, and 0.1% PEG 8000 (polyethylene glycol; Fisher Scientific). Determinations were made using purified Human plasma kallikrein at a final concentration of 0.5 nM (Enzyme Research Laboratories) and the synthetic substrate, Acetyl-K-P-R-AFC (Sigma # C6608) at a concentration of […].
Times required to achieve equilibration between enzyme and inhibitor were determined in control experiments. The reactions were performed under linear progress curve conditions and fluorescence increase measured at 405 Ex/510 Em nm. […] IC50 was determined by inflection point from a four parameter logistic curve fit. Ki was calculated using the Cheng Prusoff equation, Ki=IC50/(1+([S]/Km)).

Setting [3] is: substrate Z-Gly-Pro-Arg-AFC 100 μM, 40 pM enzyme, pH 7.4, read-out: FXIa IC50.
The mark [4] stands for this setting: Plasma kallikrein, substrate Acetyl-K-P-R-AFC, 0.5 nM enzyme, pH 7.4, read-out: PK IC50.

Where two headings read alike, the source gives them in different places.

Chain of purified Human plasma kallikrein (P03952 391-638): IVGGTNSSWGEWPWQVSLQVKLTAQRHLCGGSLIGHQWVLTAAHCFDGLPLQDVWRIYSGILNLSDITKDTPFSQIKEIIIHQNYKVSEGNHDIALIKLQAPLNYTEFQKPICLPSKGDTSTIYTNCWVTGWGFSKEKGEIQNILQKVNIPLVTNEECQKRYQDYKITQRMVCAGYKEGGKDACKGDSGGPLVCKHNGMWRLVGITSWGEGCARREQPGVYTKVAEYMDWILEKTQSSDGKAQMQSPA
Chain of purified Human plasma kallikrein (P03952 20-390 partner): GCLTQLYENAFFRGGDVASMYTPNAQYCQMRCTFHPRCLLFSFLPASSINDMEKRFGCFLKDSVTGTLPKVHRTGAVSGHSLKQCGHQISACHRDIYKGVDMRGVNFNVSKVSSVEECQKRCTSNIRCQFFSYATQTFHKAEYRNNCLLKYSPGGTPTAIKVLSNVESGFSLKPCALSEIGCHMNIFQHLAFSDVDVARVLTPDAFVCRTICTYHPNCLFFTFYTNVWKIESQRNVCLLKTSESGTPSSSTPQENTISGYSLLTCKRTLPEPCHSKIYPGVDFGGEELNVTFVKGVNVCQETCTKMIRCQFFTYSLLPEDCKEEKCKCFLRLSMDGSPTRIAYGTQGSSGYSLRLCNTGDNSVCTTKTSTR

Broadly, the IC50 is the concentration that inhibits the measured activity by half. Consider `O=C(O)c1ccc(-c2cccc(C(Cc3ccccc3)c3ccc(-c4cc(Cl)ccc4-n4cnnn4)c[n+]3[O-])c2)cc1` (single isomer, unassigned) [Example 11], for which the IC50 in experiment [1] (setting [3]) worked out at 14 nM; in experiment [2] (setting [4]), 276 nM.
Take `O=C(O)c1cccc(-c2cccc([C@@H](Cc3ccccc3)c3ccc(-c4cc(Cl)ccc4-n4cnnn4)c[n+]3[O-])c2)c1` (stereo in doubt) [Example 8, 2-(1-(3′-carboxy-[1,1′-biphenyl]-3-yl)-2-phenylethyl)-5-(5-chloro-2-(1H-tetrazol-1-yl)phenyl)pyridine 1-oxide]: the values for the IC50 in experiment [1] (setting [3]) and in experiment [2] (setting [4]) were 41 nM and 6920 nM, respectively.
Take `O=C(O)c1cccc(-c2cccc([C@H](Cc3ccccc3)c3ccc(-c4cc(Cl)ccc4-n4cnnn4)c[n+]3[O-])c2)c1` (stereo in doubt) [Example 9, 2-(1-(3′-carboxy-[1,1′-biphenyl]-3-yl)-2-phenylethyl)-5-(5-chloro-2-(1H-tetrazol-1-yl)phenyl)pyridine 1-oxide]: the figures for the IC50 in experiment [1] (setting [3]) and in experiment [2] (setting [4]) were 0.267 nM and 24.9 nM, respectively.
Turning to `COC(=O)Nc1ccc(-c2cccc([C@H](Cc3ccccc3)c3ccc(-c4cc(Cl)ccc4-n4cnnn4)c[n+]3[O-])c2)cc1` [Example 3, (S)-5-(5-Chloro-2-(1H-tetrazol-1-yl)phenyl)-2-(1-(4′-((methoxycarbonyl)amino)-[1,1′-biphenyl]-3-yl)-2-phenylethyl)pyridine 1-oxide], the figures for the IC50 in experiment [1] (setting [3]) and in experiment [2] (setting [4]) were 2.07 nM and 34.3 nM, respectively.
`CS(=O)(=O)c1ccc(-c2cccc(C(Cc3ccccc3)c3ccc(-c4cc(Cl)ccc4-n4cnnn4)c[n+]3[O-])c2)cc1` (centres unmarked) [Example 4]: the IC50 turned out to be 38.9 nM in experiment [1] (setting [3]) and 4660 nM in experiment [2] (setting [4]).
Taken in the same sequence, the figures for `CS(=O)(=O)c1ccc(-c2cccc([C@H](Cc3ccccc3)c3ccc(-c4cc(Cl)ccc4-n4cnnn4)c[n+]3[O-])c2)cc1` [Example 6] were 31.1 nM and 1110 nM.
For `O=C(O)c1cccc(-c2cc(F)cc([C@H](Cc3ccccc3)c3ccc(-c4cc(Cl)ccc4-n4cnnn4)c[n+]3[O-])c2)c1` [Example 14], in that order: 0.301 nM and 19.1 nM.
Taken in the same sequence, the figures for `NC(=O)c1cccc(-c2cc(F)cc([C@H](Cc3ccccc3)c3ccc(-c4cc(Cl)ccc4-n4cnnn4)c[n+]3[O-])c2)c1` [Example 16] were 3.34 nM and 178 nM.
On to `O=C(O)c1cccc(-c2cccc(C(CC3CC3)c3ccc(-c4cc(Cl)ccc4-n4cnnn4)c[n+]3[O-])c2)c1` (centres unmarked) [Example 18], for which the values for the 50% inhibitory concentration (IC50) in experiment [1] (setting [3]) and in experiment [2] (setting [4]) were 12 nM and 250 nM, respectively.
For `CCNC(=O)N1CCC(c2cccc([C@H](Cc3ccccc3)c3ccc(-c4cc(Cl)ccc4-n4cnnn4)c[n+]3[O-])c2)CC1` [Example 28, 4-{3-[(1S)-1-{5-[5-chloro-2-(1H-tetrazol-1-yl)phenyl]-1-oxidopyridin-2-yl}-2-phenylethyl]phenyl}-N-ethylpiperidine-1-carboxamide], in that order: 7.25 nM and 271 nM.
For `O=C(C1CC1(F)F)N1CCC(c2cccc([C@H](Cc3ccccc3)c3ccc(-c4cc(Cl)ccc4-n4cnnn4)c[n+]3[O-])c2)CC1` (stereo partly drawn) [Example 30, 5-[5-chloro-2-(1H-tetrazol-1-yl)phenyl]-2-[(1S)-1-(3-{1-[(2,2-difluoro-cyclopropyl)carbonyl]piperidin-4-yl}phenyl)-2-phenylethyl] pyridine 1-oxide], in that order: 28.6 nM and 820 nM.
For `O=C(C1CCCO1)N1CCC(c2cccc([C@H](Cc3ccccc3)c3ccc(-c4cc(Cl)ccc4-n4cnnn4)c[n+]3[O-])c2)CC1` (stereo partly drawn) [Example 31, 5-[5-chloro-2-(1H-tetrazol-1-yl)phenyl]-2-[(1S)-2-phenyl-1-{3-[1-(tetrahydrofuran-2-ylcarbonyl)piperidin-4-yl]phenyl}ethyl] pyridine 1-oxide], in that order: 10.8 nM and 336 nM.
In the case of `O=C1CC(C(=O)N2CCC(c3cccc([C@H](Cc4ccccc4)c4ccc(-c5cc(Cl)ccc5-n5cnnn5)c[n+]4[O-])c3)CC2)C1` [Example 32, 3-[(4-{3-[(1S)-1-{5-[5-chloro-2-(1H-tetrazol-1-yl)phenyl]-1-oxidopyridin-2-yl}-2-phenylethyl]phenyl}piperidin-1-yl)carbonyl] cyclobutanone], the IC50 in experiment [1] (setting [3]) turned out to be 11.1 nM; in experiment [2] (setting [4]), 324 nM.
As to `COCCC(=O)N1CCC(c2cccc([C@H](Cc3ccccc3)c3ccc(-c4cc(Cl)ccc4-n4cnnn4)c[n+]3[O-])c2)CC1` [Example 33, 5-[5-chloro-2-(1H-tetrazol-1-yl)phenyl]-2-[(1S)-1-{3-[1-(3-methoxy-propanoyl)piperidin-4-yl]phenyl}-2-phenylethyl] pyridine 1-oxide], the half-inhibitory concentration (IC50) in experiment [1] (setting [3]) was 11.2 nM; in experiment [2] (setting [4]) it was 376 nM.
`O=C(C1CC1)N1CCC(c2cccc([C@H](Cc3ccccc3)c3ccc(-c4cc(Cl)ccc4-n4cnnn4)c[n+]3[O-])c2)CC1` [Example 34, 5-[5-chloro-2-(1H-tetrazol-1-yl)phenyl]-2-[(1S)-1-{3-[1-(cyclopropyl-carbonyl)piperidin-4-yl]phenyl}-2-phenylethyl] pyridine 1-oxide]: the IC50 amounted to 10.6 nM in experiment [1] (setting [3]) and 371 nM in experiment [2] (setting [4]).
Taken in the same sequence, the figures for `O=C(C1CCO1)N1CCC(c2cccc([C@H](Cc3ccccc3)c3ccc(-c4cc(Cl)ccc4-n4cnnn4)c[n+]3[O-])c2)CC1` (stereo partly drawn) [Example 35, 5-[5-chloro-2-(1H-tetrazol-1-yl)phenyl]-2-[(1S)-1-{3-[1-(oxetan-2-ylcarbonyl)piperidin-4-yl]phenyl}-2-phenylethyl] pyridine 1-oxide] were 12.2 nM and 403 nM.
Taken in the same sequence, the figures for `COCC(=O)N1CCC(c2cccc([C@H](Cc3ccccc3)c3ccc(-c4cc(Cl)ccc4-n4cnnn4)c[n+]3[O-])c2)CC1` [Example 36, 5-[5-chloro-2-(1H-tetrazol-1-yl)phenyl]-2-[(1S)-1-{3-[1-(methoxyacetyl)piperidin-4-yl]phenyl}-2-phenylethyl] pyridine 1-oxide] were 8.17 nM and 382 nM.
`O=C(CF)N1CCC(c2cccc([C@H](Cc3ccccc3)c3ccc(-c4cc(Cl)ccc4-n4cnnn4)c[n+]3[O-])c2)CC1` [Example 38, 5-[5-chloro-2-(1H-tetrazol-1-yl)phenyl]-2-[(1S)-1-{3-[1-(fluoroacetyl)piperidin-4-yl]phenyl}-2-phenylethyl] pyridine 1-oxide]: the IC50 in experiment [1] was determined as 10.9 nM; in experiment [2] it was 322 nM.
Consider `NC(=O)C(=O)N1CCC(c2cccc([C@H](Cc3ccccc3)c3ccc(-c4cc(Cl)ccc4-n4cnnn4)c[n+]3[O-])c2)CC1` [Example 39, 2-(4-{3-[(1S)-1-{5-[5-chloro-2-(1H-tetrazol-1-yl)phenyl]-1-oxidopyridin-2-yl}-2-phenylethyl]phenyl}piperidin-1-yl)-2-oxoacetamide], for which the figures for the IC50 in experiment [1] (setting [3]) and in experiment [2] (setting [4]) were 9.95 nM and 113 nM, respectively.
Consider `O=C(C1COC1)N1CCC(c2cccc([C@H](Cc3ccccc3)c3ccc(-c4cc(Cl)ccc4-n4cnnn4)c[n+]3[O-])c2)CC1` [Example 40], for which the figures for the IC50 in experiment [1] (setting [3]) and in experiment [2] (setting [4]) were 11.8 nM and 413 nM, respectively.
Taken in the same sequence, the figures for `COCCOC(=O)N1CCC(c2cccc([C@H](Cc3ccccc3)c3ccc(-c4cc(Cl)ccc4-n4cnnn4)c[n+]3[O-])c2)CC1` [Example 45, 2-methoxyethyl 4-{3-[(1S)-1-{5-[5-chloro-2-(1H-tetrazol-1-yl)phenyl]-1-1-oxidopyridin-2-yl}-2-phenylethyl]phenyl} piperidine-1-carboxylate] were 43.9 nM and 659 nM.
For `O=C(NC1CCCC1)N1CCC(c2cccc([C@H](Cc3ccccc3)c3ccc(-c4cc(Cl)ccc4-n4cnnn4)c[n+]3[O-])c2)CC1` [Example 47, 4-{3-[(1S)-1-{5-[5-chloro-2-(1H-tetrazol-1-yl)phenyl]-1-oxidopyridin-2-yl}-2-phenylethyl]phenyl}-N-cyclopentyl piperidine-1-carboxamide], the IC50 came out at 20.1 nM in experiment [1] (setting [3]) and 879 nM in experiment [2] (setting [4]).
